{
  "source": "patent US20250120961A1",
  "about": "“P53 MODULATORS” (Nested Therapeutics, Inc., priority 2023, published 2025)",
  "target": "His-tagged p53-Y220C DNA binding domain (Homo sapiens, UniProt P04637, Y220C)",
  "test": "Biochemical p53-Y220C and DNA binding assay (HTRF)",
  "conditions": "inflection point of 10 points dose titration, 4 parameter curve fit; p53-Y220C DBD 100 nM, biotinylated dsDNA 200 nM, 27 to 29° C.; read-out: HTRF IP",
  "from_the_text": "Biological Example 1. Biochemical p53-Y220C and DNA Binding Assay\nThe compounds of this invention can bind to p53-Y220C and increase the ability of the mutant p53 to bind to DNA at higher temperatures. His-tagged p53-Y220C DNA binding domain containing amino acid 94-312 is used to measure DNA binding activities in vitro with the sequence described below. (SEQ ID NO: 1: […]. Biotin labeled double strand DNA (dsDNA) containing consensus p53 binding sequence (SEQ ID NO: 2: Forward: 5′-(biotin)-[…]-3′; Reverse: 5′-(biotin)-[…]-3′) is used to measure protein-DNA binding activities. Compounds, His-tagged p53-Y220C DBD proteins (100 nM), and biotinylated dsDNA (200 nM) were mixed in ice-cold assay buffer containing DPBS, 20 mM NaCl, and 0.5% BAS, and incubated at 4° C. overnight in 384-well plate. Plates were transferred to incubator at 27 to 29° C. with constant shaking for 60 minutes. Equal volume of Homogeneous Time-Resolved Fluorescence (HTRF) dyes containing mAb anti-6HIS Tb cryptate gold and d2 labeled streptavidin in the assay buffer was added to each well and incubated at 27 to 29° C. with constant shaking for 60 minutes. The plate was read using Envision multimode plate reader. Reference compound 1 was used as high control and DMSO was used as low control. The percentage activation (A %) of protein-DNA binding by compounds was normalized by setting up high control (reference compound) as […] and low control (DMSO) as 0% (A %=(HTRF ratio of compound-HTRF ratio of low control)/(HTRF ratio of high control-HTRF ratio of low control)*500). 10 points dose titration curves for each compound were analyzed by 4 parameter curve fit and inflection point (IP) was reported. Reference compound 1 is shown below Table 1. Compounds of the invention are active in the HTRF assay. Data in Table 1 collected using Biological Example 1.",
  "data": [
    {"smiles": "OC(CO/N=C/c1sc2c(N[C@@H]3CNC[C@@H]3F)cccc2c1CC(F)(F)F)C(F)(F)F", "note": "(stereo partly drawn) [Example 1-5, (E)-7-(((3R,4S)-4-fluoropyrrolidin-3-yl)amino)-3-(2,2,2-trifluoroethyl)benzo[b]thiophene-2-carbaldehyde O-(3,3,3-trifluoro-2-hydroxypropyl) oxime]", "values": [
      {"measurement": "EC50", "result": "100 to 1000", "unit": "nM"}
    ]},
    {"smiles": "CNC(=O)c1ccc(CO/N=C/c2oc3c(N[C@@H]4CCN(C)C[C@@H]4F)cccc3c2SC(F)(F)F)c(NC)c1", "note": "[Example 2-34, 4-(((((E)-(7-(((3S,4R)-3-fluoro-1-methylpiperidin-4-yl)amino)-3-((trifluoromethyl)thio)benzofuran-2-yl)methylene)amino)oxy)methyl)-N-methyl-3-(methylamino)benzamide]", "values": [
      {"measurement": "EC50", "result": "> 1000", "unit": "nM"}
    ]},
    {"smiles": "O=C1CC(CO/N=C/c2sc3c(N[C@@H]4CNC[C@@H]4F)cccc3c2CC(F)(F)F)CN1", "note": "(stereo partly drawn) [Example 3-8, (E)-7-(((3R,4S)-4-fluoropyrrolidin-3-yl)amino)-3-(2,2,2-trifluoroethyl)benzo[b]thiophene-2-carbaldehyde O-((5-oxopyrrolidin-3-yl)methyl) oxime]", "values": [
      {"measurement": "EC50", "result": "100 to 1000", "unit": "nM"}
    ]},
    {"smiles": "CN1CC[C@@H](Nc2cccc3c(CC(F)(F)F)c(/C=C/CNc4cccnc4)sc23)[C@@H](F)C1", "note": "[Example 7-1, N-((E)-3-(7-(((3S,4R)-3-fluoro-1-methylpiperidin-4-yl)amino)-3-(2,2,2-trifluoroethyl)benzo[b]thiophen-2-yl)allyl)pyridin-3-amine]", "values": [
      {"measurement": "EC50", "result": "100 to 1000", "unit": "nM"}
    ]},
    {"smiles": "COc1cccc(CO/N=C\\c2sc3c(N[C@@H]4CCN(C)C[C@@H]4F)cccc3c2CC(F)(F)F)n1", "note": "[Example 2-28, (Z)-7-(((3S,4R)-3-fluoro-1-methylpiperidin-4-yl)amino)-3-(2,2,2-trifluoroethyl)benzo[b]thiophene-2-carbaldehyde O-((6-methoxypyridin-2-yl)methyl) oxime]", "values": [
      {"measurement": "EC50", "result": "100 to 1000", "unit": "nM"}
    ]},
    {"smiles": "F[C@H]1CNC[C@H]1Nc1cccc2c(CC(F)(F)F)c(/C=N/OC3CCOC3)sc12", "note": "(stereo partly drawn) [Example 3-1, (E)-7-(((3R,4S)-4-fluoropyrrolidin-3-yl)amino)-3-(2,2,2-trifluoroethyl)benzo[b]thiophene-2-carbaldehyde O-tetrahydrofuran-3-yl oxime]", "values": [
      {"measurement": "EC50", "result": "< 100", "unit": "nM"}
    ]},
    {"smiles": "O=C1NC(CO/N=C/c2sc3c(N[C@@H]4CNC[C@@H]4F)cccc3c2CC(F)(F)F)CO1", "note": "(stereo partly drawn) [Example 2-19, (E)-7-(((3R,4S)-4-fluoropyrrolidin-3-yl)amino)-3-(2,2,2-trifluoroethyl)benzo[b]thiophene-2-carbaldehyde O-((2-oxooxazolidin-4-yl)methyl) oxime]", "values": [
      {"measurement": "EC50", "result": "100 to 1000", "unit": "nM"}
    ]},
    {"smiles": "F[C@H]1CNC[C@H]1Nc1cccc2c(CC(F)(F)F)c(/C=N/OCc3cccnc3)sc12", "note": "[Example 3-2, (E)-7-(((3R,4S)-4-fluoropyrrolidin-3-yl)amino)-3-(2,2,2-trifluoroethyl)benzo[b]thiophene-2-carbaldehyde O-pyridin-3-ylmethyl oxime]", "values": [
      {"measurement": "EC50", "result": "< 100", "unit": "nM"}
    ]},
    {"smiles": "CN1CC[C@@H](Nc2cccc3c(CC(F)(F)F)c(/C=N/OCc4cccc(=O)n4C)sc23)[C@@H](F)C1", "note": "[Example 2-29, (E)-7-(((3S,4R)-3-fluoro-1-methylpiperidin-4-yl)amino)-3-(2,2,2-trifluoroethyl)benzo[b]thiophene-2-carbaldehyde O-((1-methyl-6-oxo-1,6-dihydropyridin-2-yl)methyl) oxime]", "values": [
      {"measurement": "EC50", "result": "100 to 1000", "unit": "nM"}
    ]},
    {"smiles": "CN1C[C@H](F)[C@H](Nc2cccc3c(CC(F)(F)F)c(/C=N/OCC(C)(C)O)sc23)C1", "note": "[Example 2-21, (E)-7-(((3R,4S)-4-fluoro-1-methylpyrrolidin-3-yl)amino)-3-(2,2,2-trifluoroethyl)benzo[b]thiophene-2-carbaldehyde O-(2-hydroxy-2-methylpropyl) oxime]", "values": [
      {"measurement": "EC50", "result": "100 to 1000", "unit": "nM"}
    ]},
    {"smiles": "F[C@H]1CNC[C@H]1Nc1cccc2c(CC(F)(F)F)c(/C=N/OC3CCCC3)sc12", "note": "[Example 2-17, (E)-7-(((3R,4S)-4-fluoropyrrolidin-3-yl)amino)-3-(2,2,2-trifluoroethyl)benzo[b]thiophene-2-carbaldehyde O-cyclopentyl oxime]", "values": [
      {"measurement": "EC50", "result": "100 to 1000", "unit": "nM"}
    ]},
    {"smiles": "OC1(CO/N=C\\c2sc3c(N[C@@H]4CNC[C@@H]4F)cccc3c2CC(F)(F)F)CCCCC1", "note": "[Example 1-31, (Z)-7-(((3R,4S)-4-fluoropyrrolidin-3-yl)amino)-3-(2,2,2-trifluoroethyl)benzo[b]thiophene-2-carbaldehyde O-((1-hydroxycyclohexyl)methyl) oxime]", "values": [
      {"measurement": "EC50", "result": "> 1000", "unit": "nM"}
    ]},
    {"smiles": "CN1CC[C@@H](Nc2cccc3c2cc(/C=N/OCC(=O)Nc2ccccc2)n3CC(F)(F)F)[C@@H](F)C1", "note": "[Example 2-8, 2-((((E)-(4-(((3S,4R)-3-fluoro-1-methylpiperidin-4-yl)amino)-1-(2,2,2-trifluoroethyl)-1H-indol-2-yl)methylene)amino)oxy)-N-phenylacetamide]", "values": [
      {"measurement": "EC50", "result": "100 to 1000", "unit": "nM"}
    ]},
    {"smiles": "OC(CO/N=C/c1sc2c(N[C@@H]3CCNC[C@@H]3F)cccc2c1CC(F)(F)F)c1ccccc1", "note": "(stereo partly drawn) [Example 2-12, (E)-7-(((3S,4R)-3-fluoropiperidin-4-yl)amino)-3-(2,2,2-trifluoroethyl)benzo[b]thiophene-2-carbaldehyde O-(2-hydroxy-2-phenylethyl) oxime]", "values": [
      {"measurement": "EC50", "result": "100 to 1000", "unit": "nM"}
    ]},
    {"smiles": "OCC1(O/N=C/c2sc3c(N[C@@H]4CNC[C@@H]4F)cccc3c2CC(F)(F)F)CCNC1", "note": "(stereo partly drawn) [Example 1-13, (E)-7-(((3R,4S)-4-fluoropyrrolidin-3-yl)amino)-3-(2,2,2-trifluoroethyl)benzo[b]thiophene-2-carbaldehyde O-(3-(hydroxymethyl)pyrrolidin-3-yl) oxime]", "values": [
      {"measurement": "EC50", "result": "> 1000", "unit": "nM"}
    ]},
    {"smiles": "Cc1oc(=O)oc1CO/N=C/c1sc2c(N[C@@H]3CNC[C@@H]3F)cccc2c1CC(F)(F)F", "note": "[Example 2-20, (E)-7-(((3R,4S)-4-fluoropyrrolidin-3-yl)amino)-3-(2,2,2-trifluoroethyl)benzo[b]thiophene-2-carbaldehyde O-((5-methyl-2-oxo-1,3-dioxol-4-yl)methyl) oxime]", "values": [
      {"measurement": "EC50", "result": "100 to 1000", "unit": "nM"}
    ]},
    {"smiles": "CN1CC[C@@H](Nc2cccc3c(CC(F)(F)F)c(/C=C/C(O)c4ccncc4)sc23)[C@@H](F)C1", "note": "(stereo partly drawn) [Example 5-9, (E)-3-(7-(((3S,4R)-3-fluoro-1-methylpiperidin-4-yl)amino)-3-(2,2,2-trifluoroethyl)benzo[b]thiophen-2-yl)-1-(pyridin-4-yl)prop-2-en-1-ol]", "values": [
      {"measurement": "EC50", "result": "100 to 1000", "unit": "nM"}
    ]},
    {"smiles": "NCC(CO)O/N=C/c1sc2c(N[C@@H]3CNC[C@@H]3F)cccc2c1CC(F)(F)F", "note": "(stereo partly drawn) [Example 1-9, (E)-7-(((3R,4S)-4-fluoropyrrolidin-3-yl)amino)-3-(2,2,2-trifluoroethyl)benzo[b]thiophene-2-carbaldehyde O-(1-amino-3-hydroxypropan-2-yl) oxime]", "values": [
      {"measurement": "EC50", "result": "> 1000", "unit": "nM"}
    ]},
    {"smiles": "CN1CC[C@@H](Nc2cccc3c(CC(F)(F)F)c(/C=C/C(O)c4cnn(CC5CC5)c4)sc23)[C@@H](F)C1", "note": "(stereo partly drawn) [Example 5-7, (E)-1-(1-(cyclopropylmethyl)-1H-pyrazol-4-yl)-3-(7-(((3S,4R)-3-fluoro-1-methylpiperidin-4-yl)amino)-3-(2,2,2-trifluoroethyl)benzo[b]thiophen-2-yl)prop-2-en-1-ol]", "values": [
      {"measurement": "EC50", "result": "100 to 1000", "unit": "nM"}
    ]},
    {"smiles": "CN1CC[C@@H](Nc2cccc3c2cc(/C=N\\Oc2ccccc2)n3CC(F)(F)F)[C@@H](F)C1", "note": "[Example 2-5, (Z)-4-(((3S,4R)-3-fluoro-1-methylpiperidin-4-yl)amino)-1-(2,2,2-trifluoroethyl)-1H-indole-2-carbaldehyde O-phenyl oxime]", "values": [
      {"measurement": "EC50", "result": "> 1000", "unit": "nM"}
    ]},
    {"smiles": "CN1CC[C@@H](Nc2cccc3c(CC(F)(F)F)c(/C=C/CNS(C)(=O)=O)sc23)[C@@H](F)C1", "note": "[Example 6-3, N-((E)-3-(7-(((3S,4R)-3-fluoro-1-methylpiperidin-4-yl)amino)-3-(2,2,2-trifluoroethyl)benzo[b]thiophen-2-yl)allyl)methanesulfonamide]", "values": [
      {"measurement": "EC50", "result": "100 to 1000", "unit": "nM"}
    ]},
    {"smiles": "CC(C)(C)O/N=C/c1sc2c(N[C@@H]3CNC[C@@H]3F)cccc2c1CC(F)(F)F", "note": "[Example 2-16, (E)-7-(((3R,4S)-4-fluoropyrrolidin-3-yl)amino)-3-(2,2,2-trifluoroethyl)benzo[b]thiophene-2-carbaldehyde O-(tert-butyl) oxime]", "values": [
      {"measurement": "EC50", "result": "> 1000", "unit": "nM"}
    ]},
    {"smiles": "CC(O)CO/N=C/c1sc2c(N[C@@H]3CCNC[C@@H]3F)cccc2c1CC(F)(F)F", "note": "(stereo partly drawn) [Example 2-13, (E)-7-(((3S,4R)-3-fluoropiperidin-4-yl)amino)-3-(2,2,2-trifluoroethyl)benzo[b]thiophene-2-carbaldehyde O-(2-hydroxypropyl) oxime]", "values": [
      {"measurement": "EC50", "result": "100 to 1000", "unit": "nM"}
    ]},
    {"smiles": "NCC(O)CO/N=C/c1sc2c(N[C@@H]3CNC[C@@H]3F)cccc2c1CC(F)(F)F", "note": "(stereo partly drawn) [Example 1-8, (E)-7-(((3R,4S)-4-fluoropyrrolidin-3-yl)amino)-3-(2,2,2-trifluoroethyl)benzo[b]thiophene-2-carbaldehyde O-(3-amino-2-hydroxypropyl)oxime]", "values": [
      {"measurement": "EC50", "result": "100 to 1000", "unit": "nM"}
    ]},
    {"smiles": "CO/N=C/c1cc2c(N[C@@H]3CCN(C)C[C@@H]3F)cccc2n1CC(F)(F)F", "note": "[Example 2-2, (E)-4-(((3S,4R)-3-fluoro-1-methylpiperidin-4-yl)amino)-1-(2,2,2-trifluoroethyl)-1H-indole-2-carbaldehyde O-methyl oxime]", "values": [
      {"measurement": "EC50", "result": "> 1000", "unit": "nM"}
    ]}
  ]
}
